Measured values as given in US8338426B2, “Piperazinyl derivatives useful as modulators of the neuropeptide Y2 receptor” (Janssen Pharmaceutica NV, priority 2007, dated 2012).

How the values were obtained:
[1] = test system: amphetamine-induced hyperactivity; test: Amphetamine-induced hyperactivity in c57bl6/j mice; type: in vivo; details: 3 and 10 mg/kg i.p., amphetamine 3 mg/kg s.c.
Experimental: To the extent that ethanol-induced hyperactivity is mediated, at least partially, by the dopaminergic system, additional experiments were designed to evaluate whether the compound of formula (A) attenuates the hyperactivity induced by amphetamine, an indirect dopamine agonist.
Locomotor activity was measured with a Hamilton Kinder motor monitor infrared beam apparatus equipped with a SmartFrame cage rack throughout which basic movements were recorded. These experiments were conducted using a between subject design. Sessions started when 8-10-week old c57bl6/j mice were located in the test cages and they lasted for 180 min. Amphetamine (3 mg/kg, s.c.) was administered 60 min after the beginning of the session. The compound of formula (A) (1,3,10 mg/kg, i.p.) or vehicle was administered 15 min prior to amphetamine and locomotor activity was measured for an additional 120 min. The average of basic movements recorded for 60 min after amphetamine was calculated for each animal. Data were analyzed with one-way analysis of variance (ANOVA) using Graph Pad.

rat Y2 receptor = target: T1, rat Y2 receptor (Rattus norvegicus, UniProt Q9ERC0); test: Neuropeptide Y2 radioligand binding assay, [125I]PYY, rat hippocampus membranes; details: read-out: rY2 pKi (converted)
T1 construct: membranes from rat or mouse hippocampus were prepared; from tissue; host or cells: rat hippocampus membranes
T1 sequence (Q9ERC0 1-381): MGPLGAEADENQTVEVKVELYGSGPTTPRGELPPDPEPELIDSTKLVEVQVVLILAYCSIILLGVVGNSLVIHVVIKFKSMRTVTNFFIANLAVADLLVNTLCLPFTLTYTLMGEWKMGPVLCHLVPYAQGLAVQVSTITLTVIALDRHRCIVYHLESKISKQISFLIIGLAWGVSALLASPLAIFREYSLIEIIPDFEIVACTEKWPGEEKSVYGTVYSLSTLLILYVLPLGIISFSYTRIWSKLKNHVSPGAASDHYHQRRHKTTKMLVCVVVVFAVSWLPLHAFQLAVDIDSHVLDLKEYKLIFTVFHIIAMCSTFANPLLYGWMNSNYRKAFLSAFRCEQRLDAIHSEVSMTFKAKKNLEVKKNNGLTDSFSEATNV
Experimental: Radioligand binding assays for the human and rat/mouse Y2 receptor were performed as described in Bonaventure, P., D. Nepomuceno, C. Mazur, B. Lord, D. A. Rudolph, J. A. Jablonowski, N. I. Carruthers and T. W. Lovenberg, J Pharmacol Exp Ther. 2004, 308, 1130.
KAN-Ts endogenously expressing Y2 receptors were used, for the rat and mouse Y2 receptor, membranes from rat or mouse hippocampus were prepared. Membranes were incubated with [^125I]PYY (80 pM) in the presence or absence of test compound for 1 h at rt. The reaction was stopped by filtration through GF/C filter plates pre-soaked in 0.3% polyethylenimine and subsequently washed with Tris-HCl, 50 mM, 5 mM EDTA buffer. Plates were dried for 1 h in a 55° C. oven, scintillation fluid was added and the radioactivity was counted in a Packard TopCount. Specific binding to the NPY receptor subtypes was determined by radioactivity that was bound in the presence of 1 μM NPY.
Apparent Ki values were calculated as K=IC50/(1+C/KD), where C is concentration of the radioligand and pKi=−log Ki. Data presented below are expressed as mean±S.E.M.

Y5 receptor subtype = target: T2, Y5 receptor subtype (Homo sapiens, UniProt Q15761); test: [125I]PYY binding in HEK-293 cells expressing the Y5 receptor subtype; details: concentrations up to 10; HEK-293 cells expressing Y5
T2 construct: expressed in transfected cells; host or cells: HEK-293 cells
T2 sequence (Q15761 1-445): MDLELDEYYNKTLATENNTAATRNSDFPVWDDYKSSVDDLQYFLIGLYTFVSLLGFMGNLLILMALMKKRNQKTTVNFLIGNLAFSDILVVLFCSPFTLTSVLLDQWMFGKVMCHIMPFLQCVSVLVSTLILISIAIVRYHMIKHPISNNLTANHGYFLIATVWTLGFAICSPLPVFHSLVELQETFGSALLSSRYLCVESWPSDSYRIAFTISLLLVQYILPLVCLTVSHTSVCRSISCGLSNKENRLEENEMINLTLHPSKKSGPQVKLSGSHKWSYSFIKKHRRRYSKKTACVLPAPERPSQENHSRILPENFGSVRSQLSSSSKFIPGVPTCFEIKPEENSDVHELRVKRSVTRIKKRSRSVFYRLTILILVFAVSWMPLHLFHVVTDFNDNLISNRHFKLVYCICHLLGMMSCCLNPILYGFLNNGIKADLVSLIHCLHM
Experimental: (§1) The selectivity of the compound of formula (A) was further evaluated in a large variety of ion-channels, transporters and receptor-binding assays including the Y1 receptor subtype. These assays were performed by CEREP (Celles L'Evescault, France; www.cere.com<http//www.cerea.com>). Selectivity vs the Y5 receptor subtype was evaluated as described in Bonaventure, P., D. Nepomuceno, C. Mazur, B. Lord, D. A. Rudolph, J. A. Jablonowski, N. I. Carruthers and T. W. Lovenberg, J Pharmacol Exp Ther. 2004, 308, 1130.

NPY Y2 receptor = target: T3, NPY Y2 receptor (Homo sapiens, UniProt P49146); test: CEREP binding panel, NPY Y2
T3 sequence (P49146 1-381): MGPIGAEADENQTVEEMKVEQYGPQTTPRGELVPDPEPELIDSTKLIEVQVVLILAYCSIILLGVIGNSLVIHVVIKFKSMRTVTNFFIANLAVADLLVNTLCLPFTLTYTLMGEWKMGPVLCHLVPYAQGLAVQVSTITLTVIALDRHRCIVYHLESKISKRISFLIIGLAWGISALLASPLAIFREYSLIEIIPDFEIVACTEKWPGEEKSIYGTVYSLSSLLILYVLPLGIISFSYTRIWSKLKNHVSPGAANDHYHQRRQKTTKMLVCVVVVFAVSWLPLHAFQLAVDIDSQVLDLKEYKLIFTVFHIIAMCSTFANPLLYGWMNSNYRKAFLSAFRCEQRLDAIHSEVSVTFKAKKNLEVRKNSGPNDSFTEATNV
Experimental: as §1
(§2) The compound of formula (A) was assayed by binding in a panel of 50 receptors, ion channels and transporters assays (CEREP) including adenosine (A1,A2A,A3), adrenergic (α1, α2, β1), angiotensin (AT1), dopamine (D1, D2), bradykinin (B2), cholecystokinin (CCKA), galanin (GAL2), melatonin ML1), muscarinic (M1, M2, M3), neurotensin (NTS), neurokinin (NK2, NK3), NPY (Y1, Y2) opiate (m, k, d), serotonin (5-HT1A, 5-HT1B, 5-HT2A, 5-HT3, 5-HT5A, 5-HT6, 5-HT7), somatostatin, vasopressin (V1a), norepinephrine transporter, dopamine transporter and ion channels (sodium, calcium, potassium and chloride).

[2] = test system: panel of 50 receptors, ion channels and transporters; test: CEREP panel of 50 receptors, ion channels and transporters; type: binding; details: concentrations up to 1 μM
Experimental: as §1, §2

With CCN(CC)C(=O)C(c1ccccc1)N1CCN(c2ccc(NC(=O)c3ccccc3-c3cccnc3)cc2F)CC1 (racemic) [Cmpd (A), N-{4-[4-(Diethylcarbamoyl-phenyl-methyl)-piperazin-1-yl]-3-fluoro-phenyl}-2-pyridin-3-yl-benzamide] the “effect on amphetamine-induced hyperactivity” value [1] was “blocked amphetamine-induced hyperactivity”, the Ki (rat Y2 receptor) was 4.57 nM and the “competition for specific [125I]PYY receptor binding sites, Y5” value (Y5 receptor subtype) was “failed to compete for significant amounts”. The inhibition at 1 µM (NPY Y2 receptor) was 100% and the “inhibition against each receptor of the panel (except NPY Y2)” value [2] was “less than 50%”.
